Measured values published in EPA's ToxValDB 9.5 (doi:10.2903/j.efsa.2006.66r).

Tests used:
[1] = test system: Rattus norvegicus; conditions: for NOAEL: neurology
[2] = test system: Oncorhynchus mykiss; conditions: chronic/long-term; duration: 21 days; mortality
[3] = test system: Colinus virginianus; conditions: reproduction developmental; duration: 21 weeks; oral; diet; reproduction
[4] = test system: Daphnia magna; conditions: chronic/long-term; duration: 21 days; reproduction
[5] = test system: Poecilus cupreus; conditions: not reported; mortality
[6] = test system: Canidae; conditions: subchronic; duration: 90 days; oral; Dog Other; neurology
[7] = test system: Tagia sp.; conditions: chronic/long-term; duration: 56 days

CCCSP(=O)(OCC)SCCC [Ethoprop] gave an NOAEL ([1]; acute, oral) of 1 mg/kg-day, an NOAEL ([1]; chronic, duration: 2 years) of 0.04 mg/kg-day and an NOEL ([1]; reproduction developmental, reproduction) of 1.3 mg/kg-day. The NOAEL ([1]; short-term, duration: 28 days, oral) was 0.1 mg/kg-day, the NOEC [2] was 0.064 mg/L and the NOEC [3] was less than 0.6 mg/kg-day. For the same compound, the NOEC [4] was 0.002 mg/L, the LEL [5] was 7000 g/ha and the NOAEL [6] was 0.1 mg/kg-day. It also gave an NOEC [7] of less than 1.67 mg/kg.
